One test deals with T1, RET (Homo sapiens, UniProt P07949).
T1 construct: purchased Carna Biosciences Inc. 08-159
The experiment in a line: Tyrosine kinase inhibition, mobility shift assay (MSA). In kind it is biochemical. The settings on record: recombinant human kinase. The method, then: (§1) A test compound was dissolved in dimethyl sulfoxide to make a 10 mM solution, which was stored in a dark place at 4° C. until use.
(§2) Protein tyrosine kinases (recombinant human kinases) used in the study were the following products from Carna Biosciences Inc. (Kobe, Japan).
(§3) VEGFR-1 (FLT 1) (product number: 08-189) VEGFR-3 (FLT 4) (product number: 08-190) RON (product number: 08-152) RET (product number: 08-159) KIT (product number: 08-156)
(§4) Kinase activity was measured in a mobility shift assay (MSA) method (J. Biomolecular Screening, 11, 359-368, 2006) using QuickScout Screening Assist™ (Carna Biosciences Inc., commercial kit), and enzyme-linked immunoassay (ELISA).
(§5) 5 μl of the test substance solution obtained by dissolving or suspending in an assay buffer (20 mM Hepes, 0.01% Triton X-100, 1 mM dithiothreitol, pH 7.4) (4× final concentration) or 5 μl of a solvent (4% dimethyl sulfoxide-assay buffer) was dispensed into a polypropylene 384-well plate (Greiner Bio-One, product number 781280). Then, 5 μl of QuickScout Screening Assist™ MSA in an ATP/substrate/metal solution was added. Additionally, 10 μl of the kinase solution diluted with the assay buffer was added to initiate a reaction. For a blank, only 10 μl of the assay buffer was added. The kinase concentration and reaction conditions were in accordance with the protocol of QuickScout Screening Assist™ MSA. Then, the reaction was terminated by addition of 60 μl of a termination buffer of the QuickScout Screening Assist™ MSA, and the amount of a substrate (S) and a phosphorylated substrate (P) in the reaction solution were determined using LabChip3000 (Caliper Life Science, Massachusetts, U.S.A.) in accordance with the protocol of QuickScout Screening Assist™ MSA. The amounts of the S and P were represented by respective separated peak height. […] It was on the condition that the signal was determined as P/(P+S).

The next test concerns the target T2, RON (Homo sapiens, UniProt Q04912).
T2 construct: purchased Carna Biosciences Inc. 08-152
The test is described as above. In kind it is biochemical. The note with it: recombinant human kinase. The procedure: as §1, §2, §3, §4, §5

In a further test the target is T3, VEGFR-1 (FLT 1) (Homo sapiens, UniProt P17948).
T3 construct: purchased Carna Biosciences Inc. 08-189
The description is as above. The class given is biochemical. The settings on record: recombinant human kinase. The method, then:
as §1, §2, §3, §4, §5

A further test concerns the target T4, VEGFR-3 (FLT 4) (Homo sapiens, UniProt P35916).
T4 construct: purchased Carna Biosciences Inc. 08-190
The test is described as above. The note with it: recombinant human kinase. In kind it is biochemical. The method, then:
as §1, §2, §3, §4, §5

A further test concerns the target T5, KIT (Homo sapiens, UniProt P10721).
T5 construct: purchased Carna Biosciences Inc. 08-156
Briefly: Inhibitory action on KIT (ELISA). The settings on record: recombinant human kinase. In kind it is biochemical. The method, then: as §1, §2, §3, §4
10 μl of the test substance solution obtained by dissolving or suspending in the assay buffer (15 mM Tris, 0.01% Tween 20, 2 mM DTT, pH 7.5) (4× final concentration), or 10 μl of a solvent (4% dimethyl sulfoxide-assay buffer) was dispensed into a DELFIA Streptavidin-coated clear plate (PerkinElmer Inc., product number 4009-0010). Then, 10 μl of an ATP/substrate/metal solution of QuickScout Screening Assist™ ELISA was added. Additionally, 20 μl of the kinase solution diluted with the assay buffer was added to initiate a reaction. For a blank, only 20 μl of the assay buffer was added. The assay method was in accordance with the protocol of QuickScout Screening Assist™ ELISA. After the reaction, the absorbance at 450 nm in each well was measured using SpectraMax (Molecular Devices, California, U.S.A).
For orientation: ELISA stands for enzyme-linked immunosorbent assay.

Test [1] has as its system Human umbilical vein endothelial cells (HUVECs). The experiment in a line: Growth inhibitory activity on human umbilical vein endothelial cells stimulated by VEGF. The class given is cell-based. The settings on record: HUVEC, 72 h, 3 days, Cell Counting Kit-8. The method, then: Human umbilical vein endothelial cells (HUVECs) were isolated according to the reported method (Shin-seikagaku jikken kouza “saibou baiyou gijutu (Cell culturing techniques)” p. 197-202) and incubated to confluence using an EGM-2 culture medium (obtained from Sanko Junyaku Co., Ltd.) in a 5% CO2 incubator (37° C.). The HUVECs were collected by a trypsin-EDTA treatment and washed with a culture medium (2% fetal bovine serum-supplemented Human endothelial SFM basal medium, obtained from Invitrogen Corp.), followed by suspending them in the medium to count the cell number. By diluting it with the medium, a 2×10^4 cells/ml cell suspension was prepared. The cell suspension was dispensed into a 96-well plate (obtained from FALCON) by 100 μl each, and incubated at 37° C. in a 5% CO2 incubator overnight. After the incubation, 50 μl of the test substance diluted with the medium was added to each well, and 50 μL of 80 ng/ml human recombinant VEGF (obtained from R&D systems, Inc.) diluted with the medium was added and further incubated for 3 days in the 5% CO2 incubator (37° C.). After the incubation, 20 μl of Cell Counting Kit-8 (obtained from DOJINDO Laboratories) was added to each well, which were incubated for about 2 hours in the 5% CO2 incubator (37° C.). After the incubation, the absorbance of the each well was measured using a plate reader MTP-500 (Corona Electric Co., Ltd) with a measurement wavelength of 450 nm and a control wavelength of 660 nm. A ratio of absorbance (%) of each well with the test substance against the wells without the test substance was determined, and based on this ratio, the concentration of the test substance required to inhibit 50% of cell proliferation (IC50) was determined and the results are shown in Table 2.
Background: Tetrazolium dyes change colour on reduction, which living cells bring about.

T4 sequence (P35916 25-1363): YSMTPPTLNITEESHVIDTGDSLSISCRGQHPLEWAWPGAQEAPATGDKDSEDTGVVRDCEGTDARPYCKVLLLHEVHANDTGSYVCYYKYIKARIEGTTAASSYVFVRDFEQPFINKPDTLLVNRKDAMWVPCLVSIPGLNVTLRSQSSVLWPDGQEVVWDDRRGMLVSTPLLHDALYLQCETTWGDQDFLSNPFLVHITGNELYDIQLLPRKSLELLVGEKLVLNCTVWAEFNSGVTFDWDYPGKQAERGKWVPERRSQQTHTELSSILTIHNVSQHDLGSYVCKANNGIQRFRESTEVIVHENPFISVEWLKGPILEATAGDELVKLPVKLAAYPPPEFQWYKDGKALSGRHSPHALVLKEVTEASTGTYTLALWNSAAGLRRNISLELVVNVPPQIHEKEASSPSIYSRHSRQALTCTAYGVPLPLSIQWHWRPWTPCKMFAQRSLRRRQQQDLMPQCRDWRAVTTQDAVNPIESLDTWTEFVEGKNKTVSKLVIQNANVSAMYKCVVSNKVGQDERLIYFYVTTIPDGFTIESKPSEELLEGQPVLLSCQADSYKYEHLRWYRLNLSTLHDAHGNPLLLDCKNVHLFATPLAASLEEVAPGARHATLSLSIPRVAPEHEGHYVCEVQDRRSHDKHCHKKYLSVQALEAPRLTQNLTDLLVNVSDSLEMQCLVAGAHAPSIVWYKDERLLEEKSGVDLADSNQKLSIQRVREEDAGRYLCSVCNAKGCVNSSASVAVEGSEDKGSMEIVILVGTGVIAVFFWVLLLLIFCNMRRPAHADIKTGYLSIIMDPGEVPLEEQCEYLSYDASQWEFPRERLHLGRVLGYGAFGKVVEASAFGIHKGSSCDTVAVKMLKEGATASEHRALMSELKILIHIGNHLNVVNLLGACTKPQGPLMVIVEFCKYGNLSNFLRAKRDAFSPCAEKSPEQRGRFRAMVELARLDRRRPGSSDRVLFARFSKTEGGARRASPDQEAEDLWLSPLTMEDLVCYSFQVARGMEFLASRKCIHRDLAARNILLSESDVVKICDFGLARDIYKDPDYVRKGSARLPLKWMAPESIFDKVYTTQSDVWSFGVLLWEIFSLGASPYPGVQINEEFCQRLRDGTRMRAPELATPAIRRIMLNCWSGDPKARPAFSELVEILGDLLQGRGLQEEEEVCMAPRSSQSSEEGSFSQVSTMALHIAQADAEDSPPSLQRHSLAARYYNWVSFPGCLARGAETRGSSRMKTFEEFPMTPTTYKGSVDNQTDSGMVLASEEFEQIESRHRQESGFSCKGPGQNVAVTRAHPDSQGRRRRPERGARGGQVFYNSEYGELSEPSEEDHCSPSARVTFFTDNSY
T2 sequence (Q04912 25-1400): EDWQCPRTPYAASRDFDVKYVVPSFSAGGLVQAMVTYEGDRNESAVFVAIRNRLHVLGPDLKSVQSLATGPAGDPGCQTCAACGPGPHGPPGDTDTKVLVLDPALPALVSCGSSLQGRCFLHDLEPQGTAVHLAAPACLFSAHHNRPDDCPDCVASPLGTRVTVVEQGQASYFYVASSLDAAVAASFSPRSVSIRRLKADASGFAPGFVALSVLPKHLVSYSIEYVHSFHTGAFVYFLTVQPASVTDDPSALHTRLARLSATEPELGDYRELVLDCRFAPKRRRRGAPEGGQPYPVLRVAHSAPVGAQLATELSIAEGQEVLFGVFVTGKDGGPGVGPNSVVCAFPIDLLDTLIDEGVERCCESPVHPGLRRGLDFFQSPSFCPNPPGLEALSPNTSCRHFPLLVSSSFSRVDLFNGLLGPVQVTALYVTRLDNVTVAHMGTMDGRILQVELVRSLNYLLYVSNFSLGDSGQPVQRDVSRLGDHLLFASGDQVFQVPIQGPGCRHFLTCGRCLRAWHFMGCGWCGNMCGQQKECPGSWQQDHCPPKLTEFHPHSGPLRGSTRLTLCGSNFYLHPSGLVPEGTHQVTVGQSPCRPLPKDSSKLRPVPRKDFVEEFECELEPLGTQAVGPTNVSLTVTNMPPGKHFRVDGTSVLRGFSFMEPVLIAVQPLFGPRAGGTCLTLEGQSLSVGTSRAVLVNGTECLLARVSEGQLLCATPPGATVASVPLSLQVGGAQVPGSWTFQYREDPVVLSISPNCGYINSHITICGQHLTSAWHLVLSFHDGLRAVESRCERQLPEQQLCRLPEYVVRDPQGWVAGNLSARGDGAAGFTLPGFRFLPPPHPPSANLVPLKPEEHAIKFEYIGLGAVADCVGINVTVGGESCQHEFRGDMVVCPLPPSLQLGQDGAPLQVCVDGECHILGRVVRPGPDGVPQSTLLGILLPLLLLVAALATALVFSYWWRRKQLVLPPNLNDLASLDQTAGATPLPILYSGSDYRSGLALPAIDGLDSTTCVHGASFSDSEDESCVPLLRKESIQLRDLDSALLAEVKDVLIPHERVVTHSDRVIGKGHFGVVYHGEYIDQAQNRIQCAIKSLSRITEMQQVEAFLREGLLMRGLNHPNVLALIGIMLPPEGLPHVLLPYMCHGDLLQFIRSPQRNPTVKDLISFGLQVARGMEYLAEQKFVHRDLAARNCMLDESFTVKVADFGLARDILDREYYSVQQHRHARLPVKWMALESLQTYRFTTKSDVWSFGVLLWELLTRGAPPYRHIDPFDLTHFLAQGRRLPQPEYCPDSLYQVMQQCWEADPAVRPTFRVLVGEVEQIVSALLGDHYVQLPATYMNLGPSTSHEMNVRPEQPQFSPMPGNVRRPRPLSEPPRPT
T1 sequence (P07949 29-1114): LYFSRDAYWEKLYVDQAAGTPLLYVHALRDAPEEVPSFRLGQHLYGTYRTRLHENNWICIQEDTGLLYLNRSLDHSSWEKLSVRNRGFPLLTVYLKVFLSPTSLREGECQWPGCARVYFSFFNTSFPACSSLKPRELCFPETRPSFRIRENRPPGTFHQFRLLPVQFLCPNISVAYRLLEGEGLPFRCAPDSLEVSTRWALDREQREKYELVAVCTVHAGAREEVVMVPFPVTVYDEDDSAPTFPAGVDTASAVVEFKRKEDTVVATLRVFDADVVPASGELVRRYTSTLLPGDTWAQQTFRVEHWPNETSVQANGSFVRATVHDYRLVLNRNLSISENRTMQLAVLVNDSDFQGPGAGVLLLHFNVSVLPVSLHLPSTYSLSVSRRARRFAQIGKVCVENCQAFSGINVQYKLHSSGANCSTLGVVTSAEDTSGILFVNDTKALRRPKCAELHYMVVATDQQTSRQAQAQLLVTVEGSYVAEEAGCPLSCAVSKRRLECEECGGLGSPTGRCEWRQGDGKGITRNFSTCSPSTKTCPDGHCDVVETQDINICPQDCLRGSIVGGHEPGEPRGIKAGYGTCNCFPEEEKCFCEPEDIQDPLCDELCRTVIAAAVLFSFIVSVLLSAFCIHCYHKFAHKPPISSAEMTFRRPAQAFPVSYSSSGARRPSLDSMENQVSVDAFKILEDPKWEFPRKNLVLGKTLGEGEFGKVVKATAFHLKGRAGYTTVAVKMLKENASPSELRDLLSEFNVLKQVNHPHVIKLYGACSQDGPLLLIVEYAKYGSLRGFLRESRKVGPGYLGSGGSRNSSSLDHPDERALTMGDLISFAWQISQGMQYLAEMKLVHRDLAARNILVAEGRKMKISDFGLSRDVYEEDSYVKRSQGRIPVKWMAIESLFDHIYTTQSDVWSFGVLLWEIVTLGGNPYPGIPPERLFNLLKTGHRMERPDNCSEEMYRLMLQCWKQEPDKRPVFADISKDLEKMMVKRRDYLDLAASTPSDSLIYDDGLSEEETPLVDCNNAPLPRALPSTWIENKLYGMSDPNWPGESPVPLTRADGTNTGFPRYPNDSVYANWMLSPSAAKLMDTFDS
T3 sequence (P17948 27-1338): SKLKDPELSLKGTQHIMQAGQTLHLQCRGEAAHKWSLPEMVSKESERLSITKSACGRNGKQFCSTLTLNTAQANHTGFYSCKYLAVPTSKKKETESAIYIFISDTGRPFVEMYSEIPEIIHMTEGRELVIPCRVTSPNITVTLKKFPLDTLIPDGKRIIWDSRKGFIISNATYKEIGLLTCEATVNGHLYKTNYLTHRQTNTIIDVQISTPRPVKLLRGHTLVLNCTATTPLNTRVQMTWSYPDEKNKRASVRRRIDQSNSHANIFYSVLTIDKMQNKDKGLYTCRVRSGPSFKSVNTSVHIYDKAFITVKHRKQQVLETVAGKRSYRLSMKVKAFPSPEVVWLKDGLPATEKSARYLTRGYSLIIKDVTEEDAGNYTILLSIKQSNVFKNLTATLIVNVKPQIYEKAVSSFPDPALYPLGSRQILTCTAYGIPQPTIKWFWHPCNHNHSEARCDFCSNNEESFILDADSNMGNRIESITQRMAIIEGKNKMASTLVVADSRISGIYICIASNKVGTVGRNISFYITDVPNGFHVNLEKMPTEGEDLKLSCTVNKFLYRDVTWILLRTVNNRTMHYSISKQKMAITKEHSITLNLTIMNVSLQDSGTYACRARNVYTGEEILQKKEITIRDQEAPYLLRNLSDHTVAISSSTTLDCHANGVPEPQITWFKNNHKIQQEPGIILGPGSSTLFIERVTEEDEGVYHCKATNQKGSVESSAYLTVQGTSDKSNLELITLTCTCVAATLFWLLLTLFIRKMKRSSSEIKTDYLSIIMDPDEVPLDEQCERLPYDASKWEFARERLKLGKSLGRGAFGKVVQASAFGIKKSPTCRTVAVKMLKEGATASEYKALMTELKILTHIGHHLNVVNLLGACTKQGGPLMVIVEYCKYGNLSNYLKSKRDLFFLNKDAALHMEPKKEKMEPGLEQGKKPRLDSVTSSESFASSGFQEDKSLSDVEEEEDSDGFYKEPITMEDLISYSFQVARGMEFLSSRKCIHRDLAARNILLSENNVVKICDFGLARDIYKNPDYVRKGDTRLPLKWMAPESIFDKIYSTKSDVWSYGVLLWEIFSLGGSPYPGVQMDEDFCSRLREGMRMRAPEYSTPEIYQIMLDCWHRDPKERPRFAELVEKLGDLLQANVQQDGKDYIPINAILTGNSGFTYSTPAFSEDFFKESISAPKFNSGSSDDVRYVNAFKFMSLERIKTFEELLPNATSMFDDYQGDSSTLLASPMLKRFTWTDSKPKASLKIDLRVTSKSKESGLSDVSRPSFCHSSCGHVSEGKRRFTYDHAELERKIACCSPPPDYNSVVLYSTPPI

Consider `O=C(Nc1cc(Oc2cc(F)c(NC(=O)C3(C(=O)Nc4ccc(F)cc4)CC3)cc2F)ccn1)N1CC(CO)C1` [N-(2,5-Difluoro-4-{[2-({[3-(hydroxymethyl)azetidin-1-yl]carbonyl}amino)pyridin-4-yl]oxy}phenyl)-N′-(4-fluorophenyl)cyclopropane-1,1-dicarboxamide], for which the IC50 on RET was found to be 28 nM; at RON, 2.6 nM; at VEGFR-1 (FLT 1) it was 14 nM; at VEGFR-3 (FLT 4), 6.2 nM; at KIT, 140 nM; in test [1] it was 5.5 nM.
On to `CN1CCN(C2CCN(C(=O)Nc3cc(Oc4cc(F)c(NC(=O)C5(C(=O)Nc6ccc(F)cc6)CC5)cc4F)ccn3)CC2)CC1` [N-(2,5-Difluoro-4-{[2-({[4-(4-methylpiperazin-1-yl)piperidin-1-yl]carbonyl}amino)pyridin-4-yl]oxy}phenyl)-N′-(4-fluorophenyl)cyclopropane-1,1-dicarboxamide], for which the IC50 at RET came out at 38 nM; at RON, 2.4 nM; at VEGFR-1 (FLT 1) it was 21 nM; at VEGFR-3 (FLT 4) it was 22 nM; at KIT it was 350 nM; in test [1] it was 20 nM.
Take `CN1CCC(N(C)C(=O)Nc2cc(Oc3cc(F)c(NC(=O)C4(C(=O)Nc5ccc(F)cc5)CC4)cc3F)ccn2)CC1` [N-(2,5-Difluoro-4-{[2-({[methyl(1-methylpiperidin-4-yl)amino]carbonyl}amino)pyridin-4-yl]oxy}phenyl)-N′-(4-fluorophenyl)cyclopropane-1,1-dicarboxamide]: the IC50 on RET stood at 36 nM; on RON, 1.8 nM; at VEGFR-1 (FLT 1), 12 nM; at VEGFR-3 (FLT 4) it was 11 nM; at KIT it was 560 nM; in test [1] it was 21 nM.
As to `O=C(Nc1cc(Oc2ccc(NC(=O)C3(C(=O)Nc4ccc(F)cc4)CC3)c(F)c2)ccn1)N1CCC1` [N-[4-({2-[(Azetidin-1-ylcarbonyl)amino]pyridin-4-yl}oxy)-2-fluorophenyl]-N′-(4-fluorophenyl)cyclopropane-1,1-dicarboxamide], the IC50 at RET stood at 99 nM; at RON it was 26 nM; at VEGFR-1 (FLT 1) it was 71 nM; at VEGFR-3 (FLT 4), 36 nM; at KIT, 380 nM; in test [1], 38 nM.
As to `O=C(Nc1cc(Oc2cc(F)c(NC(=O)C3(C(=O)Nc4ccc(F)cc4)CC3)cc2F)ccn1)N1CC(O)C1` [N-{2,5-Difluoro-4-[(2-{[(3-hydroxyazetidin-1-yl)carbonyl]amino}pyridin-4-yl)oxy]phenyl}-N′-(4-fluorophenyl)cyclopropane-1,1-dicarboxamide], the IC50 is 44 nM on RET; 4.6 nM on RON; 26 nM on VEGFR-1 (FLT 1); 10 nM on VEGFR-3 (FLT 4); 370 nM at KIT; 15 nM in test [1].

A word on the IC50: it is the midpoint of a concentration-inhibition curve.

The values are drawn from patent US20090227556A1, “RECEPTOR TYROSINE KINASE INHIBITORS COMPRISING PYRIDINE AND PYRIMIDINE DERIVATIVES” (Eisai R&D Management Co., Ltd., priority 2008, published 2009).
